Assay results: PubChem BioAssay (NCI)
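Compound exposure: 48 hours, 5 concentrations, 96-well plates. GI50: concentration for 50% inhibition of growth. TGI is the concentration that stops growth completely.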

Columns and labels:
Assay in all cases: NCI anticancer screen, dose series, 48 h
[1] = tested on: DU-145 prostate
[2] = tested on: RXF 393 renal
[3] = tested on: NCI-H522 lung
[4] = tested on: SF-268 CNS
[5] = tested on: ACHN renal
[6] = tested on: SN12C renal
[7] = tested on: NCI-H23 lung
[8] = tested on: SF-295 CNS
[9] = tested on: NCI-H460 lung
[10] = tested on: HS 578T breast

Compound	GI50 [1] [µM]	TGI [1] [µM]	GI50 [2] [µM]	TGI [2] [µM]	GI50 [3] [µM]	TGI [3] [µM]	GI50 [4] [µM]	TGI [4] [µM]	GI50 [5] [µM]	TGI [5] [µM]	GI50 [6] [µM]	TGI [6] [µM]	GI50 [7] [µM]	TGI [7] [µM]	GI50 [8] [µM]	TGI [8] [µM]	TGI [9] [µM]	TGI [10] [µM]	GI50 [10] [µM]	GI50 [9] [µM]
Cc1nc2ccccc2nc1N=Nc1ccccc1	36.1	> 100	23.4	> 100	20.4	63.1	22.7	> 100	16.9	> 100	30	> 100	14.4	51.1	6.38	> 100				
c1ccc(OCc2nnc3n2N=C(c2ccccc2)CS3)cc1				> 100		> 100		> 100		> 100		> 100		> 100		> 100	> 100			
COc1cccc(SSc2cccc(OC)c2C(=O)O)c1C(=O)O				> 100		> 100		> 100		> 100		> 100		> 100		> 100	> 100			
C/C(=N\NC(=S)N1CCCCCC1)c1cccc2cccnc12		> 100		> 100		> 100		> 100		11.6				15.5		> 21	> 100	> 100		
COc1cc2ccnc3c(=C(SC)SC)c(=O)c(c1OC)c23				26.6		5.18		60.3		26		29.9				> 100	> 100			
Cc1c2c(c(C)c3c1[nH]c1ccccc13)CN(C)CC2				34.6		31.3		47.6		35.7		76.6		56.3		31.7	35.5			
CC(=O)OC1=CC2(OC(C)=O)CC(C)(C)C1C1C(=O)C=CC(=O)C12 (stereo unspecified)		> 100		> 100		> 52.4		> 100		45.9		> 80.5		> 100		> 100	> 100			
Nc1nc(N)c2nc3c(nc2n1)CCCCCCCCCC3	2.78	> 100	4.12	> 100			2.1	> 100	2.98	> 100	7.04	> 100	2.86	> 100	0.509	> 100	> 100	> 100	3.63	0.358
CCC(C)C(=O)OCC(=O)c1ccc(-c2ccccc2)cc1 (stereo unspecified)		> 100				74.9		> 100		> 100		> 100		> 100		> 100	> 100	> 100		
OCCN(CCO)c1cccc(N(CCO)CCO)n1				> 100		> 100		> 100		> 100						> 100	> 100			
O=[N+]([O-])c1cc([N+](=O)[O-])c(Cl)cc1Cl	1.56	2.9	1.68	3.09			1.64	3.13	1.62	3.29	1.76	3.55	1.4	3	1.75	3.63		7.56	2.38	
CCC1(CN(C)C)CC/C(=C\c2ccc(OC)c(OC)c2)C1=O (stereo unspecified)				> 100		> 100		> 100		> 100		> 100		> 100		> 100	> 100			
O=C1c2cccnc2C(=O)c2c1c(C(=O)OCCCN1CCCCC1)c1ccccn21	< 0.01	1.29	< 0.0108	< 0.019	< 0.01	< 0.0156	< 0.01	0.207	< 0.01	0.0171			< 0.01	0.026	0.01	0.0383	0.0122	0.132	< 0.0178	< 0.01
Cc1ccc(NC(=O)CCc2n[nH]c(=S)o2)cc1				> 100		> 100		> 100		> 100		> 100		> 100		> 100	> 100			
CCCCOC1OC(COC(=O)C(C)C)C(OC(=O)C(C)C)C(O)C1OC1OC(C)C(OC(=O)CCC)C(OC(=O)C(C)C)C1O (stereo unspecified)	16.3	29.8	8.41	31.2	19.1	39.6	12.2	29	14.9	28.1			14	27	14.4	27.5	27.8	39.7	20.7	11.6
N#Cc1cccc(C=NC23CC4CC(CC(C4)C2)C3)c1				> 100		> 100		> 100		> 100		> 100		> 100		> 100	> 100			
COc1cccc(N2C(=O)C3C4C=C5c6ccccc6N(c6ccccc6)C5(C3C2=O)[C@H]2C(=O)N(c3cccc(OC)c3)C(=O)[C@@H]42)c1 (stereo partly specified)				> 100				> 100				> 100		> 100		> 100	> 100			
CC([O-])=C1C(=O)c2ccccc2C1=O.CC([O-])=C1C(=O)c2ccccc2C1=O.CC[O-].CC[O-].[Ti+4]					> 100	> 100	> 100	> 100	> 100	> 100	> 100	> 100	> 100	> 100	> 100	> 100	> 100			> 100
COC(=O)Cc1cc(=O)[nH]c2c1C(=O)CCC2				> 100		> 100		> 100		> 100		> 100		> 100		> 100	> 100			
O=C1CCCCC12CCC/C2=N\O (stereo unspecified)				> 100		> 100		> 100		> 100		> 100					> 100			

Compound	GI50 [1] [µM]	TGI [1] [µM]	GI50 [2] [µM]	TGI [2] [µM]	GI50 [3] [µM]	TGI [3] [µM]	GI50 [4] [µM]	TGI [4] [µM]	GI50 [5] [µM]	TGI [5] [µM]	GI50 [6] [µM]	TGI [6] [µM]	GI50 [7] [µM]	TGI [7] [µM]	GI50 [8] [µM]	TGI [8] [µM]	TGI [9] [µM]	TGI [10] [µM]	GI50 [10] [µM]	GI50 [9] [µM]
O=[N+]([O-])c1cc2no[n+]([O-])c2cc1N1CCCCC1		6.18		3.29				41.2		7.21		4.34		43.4		34.8	56.6	72.5		
O=C1OC(=O)C2C3C=CC(C12)C1C2C=CC2C31 (stereo unspecified)				> 100		> 100		> 100		> 100		> 100		> 100		> 100	> 100			
O=C(NCCCl)SCCO				> 100		> 100		> 100		> 100		> 100		> 100		> 100	> 100			
N#CC1=C(O)NC(O)=C(C#N)C1c1ccc(C2C(C#N)=C(O)NC(O)=C2C#N)cc1				> 100		43.6		> 100		> 100		> 100		> 100		> 100	> 100			
Cl.Fc1c[c-]c(-c2ccccn2)c(F)c1.[Pt].c1ccc([PH+](C[PH+](c2ccccc2)c2ccccc2)c2ccccc2)cc1	0.355	1.33	0.251	0.741					0.218	0.463								1.56	0.312	
COc1cc(C)c2sc3ccccc3c(=O)c2c1NCCN(C)C	7	20	2.4	9.41	4.91	17.9	8.57	22.3	2.97	11.3	5.41	20	13.1	28	6.25	19.5	12.3			3.26
NC(=O)NC1C(C(=O)O)N(Cc2ccccc2)C(=O)N1Cc1ccccc1 (stereo unspecified)						> 100		> 100		> 100				> 100		> 100	> 100			
CC(=O)O[C@H]1CC[C@@]2(C)C(=C/C(=N/OCCN3CCCC3)[C@H]3[C@@H]4CC[C@H](OC(C)=O)[C@@]4(C)CC[C@@H]32)C1	> 100	> 100			47.5	> 100	> 100	> 100	> 100	> 100	> 100	> 100	> 100	> 100	26.1	66.1	52.1	> 100	34.9	24.8
Cn1cc(C(=O)c2ccccc2)cc(C(=O)c2ccccc2)c1=O				> 100		> 100		> 100		> 100		> 100		> 100		> 100	> 100			
COCCOCCOCCOc1cccc2c1C(=O)c1cccc(OCCOCCOCCOC)c1C2=O				> 100						> 100		> 100		> 100		> 100	> 100			
CC(=O)c1ccc(NC(=O)C(=O)C(C#N)CC(C)(C)C=O)cc1 (stereo unspecified)						> 100		> 100		> 100		> 100		> 100		> 100	> 100			
CCCCCCCCCCCc1c(O)c(=O)c2c(oc3c(=O)c(CCCCCCCCCCC)c(O)c(=O)c3n2-c2ccc(N(C)C)cc2)c1=O				44.4		> 100		58.1		42.8		36.8		47.1		46.2	36.1			
O=c1c2cc3c(cc2c2cccc4c2n1CCC4)OCO3				92.2		42				> 100		> 100		> 100		> 100	> 100			
CC1(C)Cc2c(Br)c(Br)c(Br)c(OCC(O)CN3CCN(c4ccccn4)CC3)c2O1 (stereo unspecified)	14.4	30.6			16.8	35.5	12.9	39.6	12.5	91.4	14.4	28.4	13.4	32	6.11	21.4	22.9	39.2	18.6	9.43
CC(=O)NC(C=O)C(O[C@H](C)C(=O)NC(C)C(=O)NC(CCC(N)=O)C(=O)OCc1ccccc1)C(O)C(O)COC(=O)CCNc1c2ccccc2nc2cccc([N+](=O)[O-])c12 (stereo partly specified)				12		4.49		5.11				5.62		9.45		38.5	3.44			
COc1cc2oc3c(c(=O)c2c(O)c1/C=C/C(C)C)C(C=C(C)C)Oc1cc(O)ccc1-3 (stereo unspecified)		30.2				32.3		36.8		29.4		30.4		30.5		31.4	30.9	38.2		
O=Cc1ccc(-c2ccc(-c3nc4ccccc4s3)cc2)s1	73	> 100	> 100	> 100	69.1	> 100	71.7	> 100	43.5	> 100			84.2	> 100	40.7	> 100	> 100			83.5
Cc1nc2cc(Nc3nc(Nc4ccc(F)cc4)nc(N4CCOCC4)n3)ccc2n1Cc1ccccc1	4.81	18.8			4.1	18.9	5.41	49.2	3.05	13.1	4.63	27.4	6.43	30.6	3.01	9.03	5.02	58.5	3.84	2.26
CC(=O)c1ccc(NC(=O)COC(=O)c2cccc3c(=O)c4ccccc4[nH]c23)cc1				> 100		> 100		> 100		> 100		> 100		> 100		49.2	> 100			
COc1ccc(C(=O)C#Cc2c[nH]c(=O)[nH]c2=O)cc1				18.3		10.6		55.3		30.5		19.4		32.8		96.2	73.9			
